The text below walks through data of ChEMBL document CHEMBL3217533, “Inhibition of Ras-Effector Interaction by Cyclic Peptides” (Medchemcomm, 2013).

One series concerns the target GTPase KRas (Homo sapiens, UniProt P01116, G12V). The series is described as follows: Inhibition of recombinant HA-tagged K-Ras G12V mutant (unknown origin) assessed as disruption of interaction with GST-tagged Raf-RBD after overnight incubation by HTRF assay. (In general: TR-FRET usually uses a lanthanide donor and a delayed reading to cut background.)
Series [1] deals with T1, Tyrosine-protein phosphatase non-receptor type 2 (Homo sapiens) (UniProt P17706).
T1 sequence (whole entry): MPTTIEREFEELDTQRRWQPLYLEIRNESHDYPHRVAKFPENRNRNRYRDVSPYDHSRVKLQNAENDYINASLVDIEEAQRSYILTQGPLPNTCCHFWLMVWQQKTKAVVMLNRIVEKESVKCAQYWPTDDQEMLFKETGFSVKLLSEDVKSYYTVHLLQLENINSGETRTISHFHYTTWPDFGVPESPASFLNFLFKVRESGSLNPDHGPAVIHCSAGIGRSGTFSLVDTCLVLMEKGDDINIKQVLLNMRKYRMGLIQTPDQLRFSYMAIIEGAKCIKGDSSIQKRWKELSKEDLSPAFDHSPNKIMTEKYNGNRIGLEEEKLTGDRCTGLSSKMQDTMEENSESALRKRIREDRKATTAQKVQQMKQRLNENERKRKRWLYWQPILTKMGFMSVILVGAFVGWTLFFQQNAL
The series is described as follows: Binding affinity to TCPTP (unknown origin) up to 20 uM by fluorescence anisotropic assay.

Series [2] has as its system GTPase KRas (Homo sapiens), P01116 [G12V]. The conditions noted are these: 10 uM.
Series [3] has the same test system. Description: Binding affinity to K-Ras G12V mutant (unknown origin) by surface plasmon resonance assay. A general note: SPR reads the build-up and loss of mass on a sensor chip optically.
For series [4] the test system is unchanged. Description: Inhibition of K-Ras G12V mutant in human H358 cells assessed as decrease in Erk phosphorylation up to 16 hrs. It counts as cell-based.
For series [5] the test system is unchanged. Description: Inhibition of K-Ras G12V mutant in human A549 cells assessed as decrease in Mek phosphorylation up to 16 hrs. Type of series: cell-based.
For series [6] the test system is unchanged. Description: Inhibition of K-Ras G12V mutant (unknown origin) assessed as disruption of interaction with Tiam1 at 10 uM after 60 mins by fluorescence microscopic-based bead binding assay.
Series [7] shares this test system. Description: Inhibition of K-Ras G12V mutant in human A549 cells assessed as decrease in Erk phosphorylation up to 16 hrs. It counts as cell-based.
For series [8] the test system is unchanged. Description: Inhibition of K-Ras G12V mutant (unknown origin) assessed as disruption of interaction with GST-tagged Raf-RBD at 10 uM after 60 mins by fluorescence microscopic-based bead binding assay.
Series [9] concerns the target T2, Tyrosine-protein phosphatase non-receptor type 1 (Homo sapiens) (UniProt P18031).
T2 sequence (whole entry): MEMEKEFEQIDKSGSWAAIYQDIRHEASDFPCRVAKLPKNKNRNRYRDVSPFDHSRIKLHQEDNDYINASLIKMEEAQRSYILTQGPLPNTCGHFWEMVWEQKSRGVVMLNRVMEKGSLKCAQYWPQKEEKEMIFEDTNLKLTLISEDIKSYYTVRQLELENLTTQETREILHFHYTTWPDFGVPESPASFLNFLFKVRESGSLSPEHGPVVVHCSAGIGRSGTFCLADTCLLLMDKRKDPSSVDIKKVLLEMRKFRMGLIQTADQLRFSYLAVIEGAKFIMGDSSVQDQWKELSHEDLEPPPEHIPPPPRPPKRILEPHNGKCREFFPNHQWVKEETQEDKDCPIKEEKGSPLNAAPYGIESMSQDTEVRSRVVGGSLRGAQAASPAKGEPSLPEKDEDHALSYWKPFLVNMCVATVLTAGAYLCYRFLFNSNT
Description: Binding affinity to PTP1B (unknown origin) up to 20 uM by fluorescence anisotropic assay.

Series [10] is described as follows: Binding affinity to MBP-tagged VP35 (unknown origin) up to 20 uM by fluorescence anisotropic assay.
In the next series the target is Albumin (Bos taurus, UniProt P02769). Description: Binding affinity to bovine serum albumin up to 20 uM by fluorescence anisotropic assay. To be noted: cattle.
The subject of series [11] is GTPase KRas (Homo sapiens), P01116 [G12V]. The series is described as follows: Inhibition of K-Ras G12V mutant (unknown origin) assessed as disruption fluorescein-labeled Raf binding to beads immobilized with K-Ras G12V mutant at 10 uM after 60 mins by fluorescence microscopic-based bead binding assay.
The test system is the same in series [12]. Description: Inhibition of K-Ras G12V mutant in human H358 cells assessed as decrease in Mek phosphorylation up to 16 hrs. Type of series: cell-based.
In series [13] the target is SH2 domain-containing protein 2A (Homo sapiens) (UniProt Q9NP31). Description: Binding affinity to GST-tagged TSAD SH2 domain (unknown origin) up to 20 uM by fluorescence anisotropic assay.
Series [14] deals with GTPase KRas (Homo sapiens), P01116 [G12V]. The series is described as follows: Binding affinity to K-Ras G12V mutant (unknown origin) after 2 hrs by fluorescence polarization-based spectrofluorimetric analysis.

Active and inactive are the calls of the source. The calls are words filed in the database; no cut-off is given here. *1 amine or outer side, *2 acyl side, *3 side chain or, on linkers, in order; H or OH if unused. Where a SMILES comes first, the peptide text is derived from it. Bridges are numbered along the chain shown (N, C = ends). [ ]: non-standard residue; d: D form. dβ3h(hPhe) = O=C(C[C@@H](CCc1ccccc1)N[*:1])[*:2]; Phe(4-F) = N[C@@H](Cc1ccc(F)cc1)C(=O)O; X1 = CC(C)(CO[*:2])C(=O)C(=O)[*:1]; Pip = O=C(O)[C@@H]1CCCCN1

Chain of GTPase KRas (P01116 whole entry G12V): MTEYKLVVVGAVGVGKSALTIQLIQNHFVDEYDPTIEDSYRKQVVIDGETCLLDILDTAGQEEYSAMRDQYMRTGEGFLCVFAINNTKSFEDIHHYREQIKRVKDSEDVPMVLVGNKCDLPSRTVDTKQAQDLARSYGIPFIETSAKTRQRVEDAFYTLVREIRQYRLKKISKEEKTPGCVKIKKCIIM
Chain of GTPase KRas (Homo sapiens), P01116 [G12V] (P01116 whole entry G12V): as above
Chain of SH2 domain-containing protein 2A (Homo sapiens) (Q9NP31 whole entry, looked up, the tested form may be a part): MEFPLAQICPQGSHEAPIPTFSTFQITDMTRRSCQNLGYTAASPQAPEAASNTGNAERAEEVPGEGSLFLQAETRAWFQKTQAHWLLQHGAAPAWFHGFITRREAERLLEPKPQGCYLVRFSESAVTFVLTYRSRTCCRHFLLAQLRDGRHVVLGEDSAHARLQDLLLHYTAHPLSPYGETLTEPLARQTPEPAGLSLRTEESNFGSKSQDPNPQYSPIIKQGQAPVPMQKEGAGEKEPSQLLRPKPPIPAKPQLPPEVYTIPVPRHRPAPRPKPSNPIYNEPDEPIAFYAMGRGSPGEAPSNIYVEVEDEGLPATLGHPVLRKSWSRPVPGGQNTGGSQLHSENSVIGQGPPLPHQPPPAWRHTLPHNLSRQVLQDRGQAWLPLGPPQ
Chain of Albumin (P02769 whole entry): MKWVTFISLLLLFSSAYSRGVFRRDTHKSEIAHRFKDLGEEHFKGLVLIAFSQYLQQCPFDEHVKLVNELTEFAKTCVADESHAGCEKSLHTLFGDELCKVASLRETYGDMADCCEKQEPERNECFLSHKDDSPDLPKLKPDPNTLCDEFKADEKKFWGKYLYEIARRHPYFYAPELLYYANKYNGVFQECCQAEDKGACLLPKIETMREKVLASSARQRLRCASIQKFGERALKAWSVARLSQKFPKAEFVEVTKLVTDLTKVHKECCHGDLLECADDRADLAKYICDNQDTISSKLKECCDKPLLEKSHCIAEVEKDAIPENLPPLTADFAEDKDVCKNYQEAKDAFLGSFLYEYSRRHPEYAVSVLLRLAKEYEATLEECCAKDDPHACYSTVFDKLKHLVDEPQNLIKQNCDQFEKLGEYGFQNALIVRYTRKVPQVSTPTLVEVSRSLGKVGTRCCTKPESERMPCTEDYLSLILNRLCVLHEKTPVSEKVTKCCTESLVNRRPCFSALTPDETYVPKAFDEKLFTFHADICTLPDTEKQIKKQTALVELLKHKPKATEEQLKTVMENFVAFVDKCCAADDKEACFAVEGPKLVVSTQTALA

`CC1(C)COC(=O)[C@H](Cc2ccccc2)NC(=O)[C@H](CCCNC(=N)N)NC(=O)[C@H](Cc2ccc(O)cc2)NC(=O)[C@@H]2CCCN2C(=O)[C@H](Cc2ccc(O)cc2)NC(=O)[C@@H](Cc2ccccc2)NC(=O)[C@H](CCC(N)=O)NC(=O)C[C@@H](CCc2ccccc2)NC(=O)[C@@H]2CCCCN2C(=O)C1=O`: the IC50 (as a rule, the concentration needed to halve the response being measured) on GTPase KRas was found to be 10000 nM.
Still for that read-out and setting: next, `CCCC[C@H]1NC(=O)[C@@H](Cc2ccc3ccccc3c2)NC(=O)[C@@H](Cc2ccc3ccccc3c2)NC(=O)[C@@H](CCCCN)NC(=O)[C@H](CCCNC(=N)N)NC(=O)[C@H](Cc2ccc(F)cc2)NC(=O)[C@H](CCC(N)=O)NC(=O)C[C@@H](CCc2ccccc2)NC(=O)[C@@H]2CCCCN2C(=O)C(=O)C(C)(C)COC1=O`: 10000 nM; `CC1(C)COC(=O)[C@H](Cc2ccccc2)NC(=O)[C@H](CCCNC(=N)N)NC(=O)[C@@H](Cc2ccc3ccccc3c2)NC(=O)[C@H](CCCNC(=N)N)NC(=O)[C@@H](Cc2ccccc2)NC(=O)[C@H](CCCN=C(N)N)NC(=O)[C@H](CCC(N)=O)NC(=O)C[C@@H](CCc2ccccc2)NC(=O)[C@@H]2CCCCN2C(=O)C1=O`: 1100 nM.
Consider `C[C@@H]1NC(=O)[C@H](Cc2ccc(O)cc2)NC(=O)[C@H](CCCNC(=N)N)NC(=O)[C@@H]([C@H](C)O)NC(=O)CNC(=O)[C@H](CCC(N)=O)NC(=O)C[C@@H](CCc2ccccc2)NC(=O)[C@@H]2CCCCN2C(=O)C(=O)C(C)(C)COC(=O)[C@H](Cc2ccccc2)NC1=O`, for which the IC50 on GTPase KRas worked out at 2300 nM.
Consider `CCCC[C@H]1NC(=O)[C@H](Cc2ccc(F)cc2)NC(=O)[C@H](CCCN=C(N)N)NC(=O)[C@@H](Cc2ccc3ccccc3c2)NC(=O)[C@H](CCCN=C(N)N)NC(=O)[C@H](CCCN=C(N)N)NC(=O)[C@H](CCC(N)=O)NC(=O)C[C@@H](CCc2ccccc2)NC(=O)[C@@H]2CCCCN2C(=O)C(=O)C(C)(C)COC1=O`, for which the outcome in series [1], in [3], in series [9], in series [10] and in series [13] was Active. For the same molecule, the inhibition result in [2], in series [6], in [8] and in [11] was “Active” throughout. In addition, the inhibition result in series [4], in series [5], in [7] and in series [12] was “inactive” throughout. The outcome on Albumin was Active.
As to `CC1(C)COC(=O)[C@H](Cc2ccccc2)NC(=O)[C@H](CCCNC(=N)N)NC(=O)CNC(=O)[C@H](Cc2ccc(O)cc2)NC(=O)[C@@H](Cc2ccc3ccccc3c2)NC(=O)[C@H](CCCN)NC(=O)[C@H](CCC(N)=O)NC(=O)C[C@@H](CCc2ccccc2)NC(=O)[C@@H]2CCCCN2C(=O)C1=O`, at GTPase KRas, the IC50 was found to be 1800 nM.
On to `CC(C)C[C@@H]1NC(=O)[C@H](CCCNC(=N)N)NC(=O)[C@H](CCCNC(=N)N)NC(=O)[C@H](Cc2ccc(O)cc2)NC(=O)[C@H](Cc2ccc(F)cc2)NC(=O)[C@H](CCCNC(=N)N)NC(=O)[C@H](CCC(N)=O)NC(=O)C[C@@H](CCc2ccccc2)NC(=O)[C@@H]2CCCCN2C(=O)C(=O)C(C)(C)COC1=O` ([Pip][dβ3h(hPhe)]QR[Phe(4-F)]YRRL; linker N-C via X1), for which the outcome in series [14], in [1], in series [9], in series [10] and in [13] was inactive. Also, the Activity entry at Albumin is reported as “Not Active”.
For `CC(C)C[C@@H]1NC(=O)[C@@H](Cc2ccc3ccccc3c2)NC(=O)[C@H](CCCNC(=N)N)NC(=O)[C@@H](C(C)C)NC(=O)[C@H](CCCNC(=N)N)NC(=O)[C@H](C)NC(=O)[C@H](CCC(N)=O)NC(=O)C[C@@H](CCc2ccccc2)NC(=O)[C@@H]2CCCCN2C(=O)C(=O)C(C)(C)COC1=O`, the IC50 at GTPase KRas stood at 2000 nM.
Consider `CC(C)[C@@H]1NC(=O)[C@@H](CC(N)=O)NC(=O)[C@H](CCCNC(=N)N)NC(=O)[C@H](CCCNC(=N)N)NC(=O)[C@H](Cc2ccc(F)cc2)NC(=O)[C@H](Cc2ccc(O)cc2)NC(=O)[C@H](CCC(N)=O)NC(=O)C[C@@H](CCc2ccccc2)NC(=O)[C@@H]2CCCCN2C(=O)C(=O)C(C)(C)COC1=O`, for which the IC50 on GTPase KRas is 1200 nM.
For the molecule `CC(C)C[C@@H]1NC(=O)[C@H](CCC(=O)O)NC(=O)[C@H](c2ccccc2)NC(=O)[C@@H](Cc2ccccc2)NC(=O)[C@H](CCCN)NC(=O)[C@@H]2CCCN2C(=O)[C@H](CCC(N)=O)NC(=O)C[C@@H](CCc2ccccc2)NC(=O)[C@@H]2CCCCN2C(=O)C(=O)C(C)(C)COC1=O`, the IC50 at GTPase KRas is 10000 nM.
